What all share (test): growth of human tumour cells (NCI), 48 h
Assay [1] deals with 786-0.
Assay [2] concerns A498.
Assay [3] concerns A549.
In assay [4] the test system is HCT-116.
The test system of assay [5] is HOP-92.
Assay [6] has as its system Hs-578T.
Assay [7] concerns K562.
The test system of assay [8] is NCI-H226.
The test system of assay [9] is PC-3.
Assay [10] deals with RXF 393.
Assay [11] deals with SK-MEL-5.
Assay [12] relates to SK-OV-3.
For assay [13], the system named is SNB-75.
The test system of assay [14] is SR.
The subject of assay [15] is U-251.
The subject of assay [16] is UACC-62.
In assay [17] the test system is EKVX.
The subject of assay [18] is Malme-3M.
The test system of assay [19] is OVCAR-4.
For assay [20], the system named is BT-549.

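In this assay, cells in 96-well plates receive the compound at five concentrations for 48 hours. Endpoints are linearly interpolated between the surrounding concentrations. GI50 marks 50% less growth.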 Calls of active or inactive are those of the source. No stated cut-off is given here; in the data, active = GI50 up to about 1.1 µM and inactive = higher.

For `COC(=O)C1CCC(=O)N1C(c1ccc(OC)cc1)c1cc(OC)c(OC)c(OC)c1` (configuration not stated), the GI50 in assay [1] is 0.507 µM (active); in assay [2] it was 0.705 µM (active); in assay [3], 0.449 µM (active); in assay [4], 0.324 µM (active); in assay [5], > 100 µM (inactive); in assay [6], 0.184 µM (active). Moreover, the GI50 in [7] was 0.256 µM (active); in assay [8] it was 0.324 µM (active); in [9] it was 0.288 µM (active); in assay [10] it was 0.0545 µM (active); in [11], 0.252 µM (active); in [12], 0.968 µM (active). Further, the GI50 in assay [13] is 0.389 µM (active); in assay [14] it was 0.18 µM (active); in [15], 0.364 µM (active); in [16] it was 0.163 µM (active).
Regarding `COc1ccc(NC(=S)NN=C(C)c2cccc(C(C)=NNC(=S)Nc3ccc(OC)cc3)n2)cc1`, the GI50 in assay [1] was 14.7 µM (inactive); in assay [2], > 100 µM (inactive); in assay [3], 23.7 µM (inactive); in assay [17], > 100 µM (inactive); in assay [4] it was 11.6 µM (inactive); in assay [5], 45.6 µM (inactive). The GI50 in [6] is > 100 µM (inactive); in [7], 31.3 µM (inactive); in assay [18] it was 13.4 µM (inactive); in [8], 47.9 µM (inactive); in [19], 7.13 µM (inactive); in assay [9], 27.2 µM (inactive). For the same molecule, the GI50 is > 100 µM (inactive) in [10]; 0.995 µM (active) in assay [11]; 21.4 µM (inactive) in assay [12]; 3.9 µM (inactive) in [13]; 3.13 µM (inactive) in [14]; 24.5 µM (inactive) in assay [15]. The GI50 in assay [16] was > 100 µM (inactive).
As to `CN(c1ccccc1)S(=O)(=O)c1ccc([N+](=O)[O-])cc1`, the GI50 is > 100 µM (inactive) in assay [1]; > 100 µM (inactive) in assay [3]; > 100 µM (inactive) in [20]; > 100 µM (inactive) in [17]; > 100 µM (inactive) in assay [4]; 40.6 µM (inactive) in assay [18]. For the same molecule, the GI50 in assay [8] was > 100 µM (inactive); in assay [19], > 100 µM (inactive); in assay [9] it was 89.5 µM (inactive); in assay [10], > 100 µM (inactive); in assay [14], > 100 µM (inactive); in assay [15], > 100 µM (inactive).
For the molecule `CSc1c([S+](C)[O-])c2ccccc2n1C` (configuration not stated), the GI50 in assay [1], in assay [2], in assay [3], in assay [17], in assay [4] and in [6] was > 100 µM (inactive) throughout. The GI50 in assay [7], in [18], in [8], in assay [19], in assay [9] and in assay [10] was > 100 µM (inactive) in each case. The GI50 in [11] is > 100 µM (inactive); in assay [12] it was > 100 µM (inactive); in assay [13], 10.8 µM (inactive); in [14], > 100 µM (inactive); in assay [16] it was > 100 µM (inactive).
Consider `NC(CC(=O)OCc1ccccc1)C(=O)OCc1ccccc1` (configuration not stated), for which the GI50 in [1] was > 100 µM (inactive); in [3], > 100 µM (inactive); in assay [17] it was > 100 µM (inactive); in assay [4], > 100 µM (inactive); in assay [6], 60.4 µM (inactive); in assay [9], > 100 µM (inactive). Further, the GI50 in assay [11], in assay [14] and in assay [16] was > 100 µM (inactive) each time.
Regarding `COC(=O)C(C(=O)C(=O)Nc1ccc(OC)cc1[N+](=O)[O-])c1nc2cc(C)c(C)cc2nc1O` (configuration not stated), the GI50 in [1] was > 100 µM (inactive); in [2], > 100 µM (inactive); in [3], > 100 µM (inactive); in assay [17] it was 74.6 µM (inactive); in [4], > 100 µM (inactive); in assay [5], > 100 µM (inactive). The GI50 is 31.6 µM (inactive) in [7]; > 100 µM (inactive) in assay [18]; > 100 µM (inactive) in assay [8]; > 100 µM (inactive) in assay [19]; > 100 µM (inactive) in assay [10]; > 100 µM (inactive) in assay [11]. The GI50 in [12], in assay [13], in [14], in assay [15] and in assay [16] was > 100 µM (inactive) each time.
In the case of `NS(=O)(=O)c1ccc(Nc2c3ccccc3nc3c(C(=O)N4CCN(CCO)CC4)cccc23)cc1`, the GI50 in assay [1], in [2], in assay [3], in [17], in assay [4] and in assay [5] was > 100 µM (inactive) each time. The GI50 was 53.2 µM (inactive) in [7]; > 100 µM (inactive) in assay [18]; > 100 µM (inactive) in assay [8]; > 100 µM (inactive) in assay [19]; > 100 µM (inactive) in assay [10]; > 100 µM (inactive) in [11]. In addition, the GI50 in assay [12] is > 100 µM (inactive); in [13], 52.7 µM (inactive); in assay [14] it was 74.1 µM (inactive); in assay [15], > 100 µM (inactive); in assay [16], > 100 µM (inactive).
Take `C/C(=N\N=C(N)N)c1sc(-c2nc(C)c(/C(C)=N/N=C(N)N)s2)nc1C`: the GI50 in assay [1] is > 47.9 µM (inactive); in [2] it was > 100 µM (inactive); in [3], > 100 µM (inactive); in assay [17] it was > 100 µM (inactive); in assay [4] it was > 100 µM (inactive); in assay [5], > 100 µM (inactive). Further, the GI50 in assay [7] is > 67.8 µM (inactive); in assay [18] it was > 100 µM (inactive); in [8], > 100 µM (inactive); in assay [19], > 85.5 µM (inactive); in assay [10] it was > 45.4 µM (inactive); in assay [11], > 100 µM (inactive). Besides, the GI50 is > 100 µM (inactive) in assay [12]; > 84.3 µM (inactive) in assay [13]; > 45.6 µM (inactive) in assay [14]; > 95.3 µM (inactive) in assay [15]; > 100 µM (inactive) in [16].
For `CCOC(=O)C(Cc1ccc2c(c1)CCC2)(Cc1ccc2c(c1)CCC2)C(=O)OCC`, the GI50 is 94.2 µM (inactive) in assay [1]; > 100 µM (inactive) in assay [2]; 47.5 µM (inactive) in assay [3]; 17.4 µM (inactive) in [17]; 31.7 µM (inactive) in assay [4]; 26.9 µM (inactive) in assay [5]. Moreover, the GI50 in assay [6] is > 100 µM (inactive); in [7] it was 58.5 µM (inactive); in assay [18], 21.1 µM (inactive); in [19], > 100 µM (inactive); in assay [9] it was 32.5 µM (inactive); in assay [10], 23.4 µM (inactive). The GI50 is 33.8 µM (inactive) in assay [11]; > 100 µM (inactive) in assay [12]; > 100 µM (inactive) in [13]; 19 µM (inactive) in assay [14]; > 100 µM (inactive) in assay [15].
`CCOC(=O)C(=CNC(=S)c1ccncc1)C(=O)OCC`: the GI50 in [1], in assay [2], in assay [3], in assay [17], in [4] and in assay [5] was > 100 µM (inactive) in each case. Also, the GI50 in [6], in assay [7], in assay [18], in assay [19], in [9] and in assay [10] was > 100 µM (inactive) each time. Besides, the GI50 was > 100 µM (inactive) in assay [11]; > 100 µM (inactive) in assay [12]; 25.6 µM (inactive) in assay [13]; > 100 µM (inactive) in assay [14]; > 100 µM (inactive) in assay [15]; > 100 µM (inactive) in assay [16].
For `CCCCCCCCCCCCCCCCOCC(CN(C)CCN(C)C)OCCCCCCCCCCCCCCCC` (configuration not stated), the GI50 in assay [1], in assay [2], in assay [3], in [17], in [4] and in assay [5] was > 100 µM (inactive) each time. Moreover, the GI50 in [7], in assay [18], in assay [8], in [19], in assay [10] and in [11] was > 100 µM (inactive) in each case. The GI50 in assay [12], in [13], in assay [14], in assay [15] and in assay [16] was > 100 µM (inactive) each time.
With `COc1ccc(NC(=O)CC(=O)N2N=C(N(c3ccccc3)c3ccccc3)CC2c2ccccc2)cc1` (configuration not stated), the GI50 in assay [1], in assay [2], in assay [3], in assay [17], in assay [4] and in [5] was > 100 µM (inactive) throughout. The GI50 in assay [6] was 98.4 µM (inactive); in assay [7], > 100 µM (inactive); in [8], > 100 µM (inactive); in assay [19], > 100 µM (inactive); in assay [9], > 100 µM (inactive); in assay [10], > 100 µM (inactive). Also, the GI50 in assay [12], in [13], in [15] and in [16] was > 100 µM (inactive) each time.
